This assay has as its target T1, membrane ATP synthase (Homo sapiens, UniProt P06576+P25705+P36542).
T1 construct: Measurement of the effect of OPFP1 on the production of extracellular ATP in the SH-SY5Y cell line; endogenous in cells; host or cells: SH-SY5Y human neuroblastoma cells
Kind of assay: Production of extracellular ATP in SH-SY5Y cell line. To be noted: after 5′ pre-incubation, OPFP1 mixture 10 μg/ml, piceatannol 4 μM, read-out: maximum inhibition of ATP synthesis. Type of assay: cell-based. The procedure:
FIG. 6. Production of extracellular ATP. Measurement of the effect of OPFP1 on the production of extracellular ATP in the SH-SY5Y cell line. (A) analysis of the effects on ATP production at different pre-incubation times; (B) evaluation of the effects elicited by different concentrations of the OPFP1 mixture (results are the mean of three independent experiments).
The mixture not only binds this enzyme complex but also modulates its activity. As positive control, piceatannol (3,4,3′,5′-tetrahydroxy-trans-stilbene) was used, that is a resveratrol metabolite well-known for its inhibitory activity on the production of extracellular ATP.

On to `Oc1cc(O)cc(/C=C/c2ccc(O)c(O)c2)c1` [piceatannol, 3,4,3′,5′-tetrahydroxy-trans-stilbene], for which the inhibition – broadly, the change of the read-out against control, counted positive when it falls – at 4 µM worked out at 97%.

For the origin of these results see patent US20110311562A1, “Glycolipid Mixture with Anti-Inflammatory Activity Obtained from Oscillatoria Planktothrix” (priority 2009, published 2011).
